Data taken from patent publication US7074789B2, “Kinase inhibitors” (Amgen Inc., priority 1999, dated 2006).
pIC50: −log10 of the molar value. Where two headings read alike, the source gives them in different places.

Experiments:
Type in all cases: biochemical
[1] = molecular target: T1, Itk (Homo sapiens, UniProt Q08881); assay: Kinase inhibition assay (33P transfer), Itk; settings: read-out: Itk-1
T1 construct: Kinases are expressed as either kinase domains or full length constructs; made in house
T1 sequence (Q08881 1-620): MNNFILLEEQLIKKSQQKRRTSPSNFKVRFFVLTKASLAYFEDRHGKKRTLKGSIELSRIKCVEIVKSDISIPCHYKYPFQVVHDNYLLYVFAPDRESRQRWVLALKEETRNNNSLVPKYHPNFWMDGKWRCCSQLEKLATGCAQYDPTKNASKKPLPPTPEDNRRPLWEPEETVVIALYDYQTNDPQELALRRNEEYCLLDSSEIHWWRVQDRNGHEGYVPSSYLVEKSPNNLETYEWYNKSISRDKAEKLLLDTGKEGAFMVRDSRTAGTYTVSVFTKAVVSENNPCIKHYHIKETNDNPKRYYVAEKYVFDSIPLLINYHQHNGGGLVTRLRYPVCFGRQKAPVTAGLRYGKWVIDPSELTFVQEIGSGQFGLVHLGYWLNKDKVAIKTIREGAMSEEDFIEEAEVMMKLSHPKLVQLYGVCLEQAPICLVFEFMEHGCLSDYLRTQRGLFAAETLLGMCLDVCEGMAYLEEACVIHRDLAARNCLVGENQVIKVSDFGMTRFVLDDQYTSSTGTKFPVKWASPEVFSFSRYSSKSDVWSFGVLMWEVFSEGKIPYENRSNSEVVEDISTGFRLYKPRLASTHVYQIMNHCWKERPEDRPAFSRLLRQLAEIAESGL
Outline: (§1)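 Each enzyme, purified to near homogeneity by affinity chromatography, was incubated with ATP carrying 33P and a substrate polymer fixed to the plate. Unbound label was removed with dilute phosphoric acid (0.5%) before adding scintillant and counting. Potency is given as the compound level cutting label uptake by 50%.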

[2] = molecular target: T2, EGFR (Homo sapiens, UniProt P00533); assay: Kinase inhibition assay (33P transfer), EGFR; settings: read-out: EGFR-1
T2 construct: Kinases are expressed as either kinase domains or full length constructs; made in house
Outline: as §1

[3] = molecular target: T3, AKT (Homo sapiens, UniProt Q9Y243); assay: Kinase inhibition assay (33P transfer), AKT; settings: read-out: AKT3-1
T3 construct: Kinases are expressed as either kinase domains or full length constructs; made in house
Outline: (§2)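 Activity was read as 33P incorporation, counted by liquid scintillation after a 0.5% phosphoric acid wash, into poly(Glu,Tyr) 4:1 or poly(Arg,Ser) 3:1 substrates coated on plates. Enzymes were tagged (GST or polyHis) kinase domains or full-length proteins from bacterial or insect-cell expression, sometimes with regulatory polypeptides.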

[4] = molecular target: T4, IGFR-1 (Homo sapiens, UniProt P08069); assay: Kinase inhibition assay (33P transfer), IGFR-1; settings: Table 2, class symbols A-E
T4 construct: Kinases are expressed as either kinase domains or full length constructs; made in house

[5] = molecular target: T5, Kdr (Homo sapiens, UniProt P35968); assay: Kinase inhibition assay (33P transfer), Kdr; settings: read-out: KDR-1
T5 construct: Kinases are expressed as either kinase domains or full length constructs; made in house
Outline: as §2

[6] = molecular target: T6, Lck (Homo sapiens, UniProt P06239); assay: Kinase inhibition assay (33P transfer), Lck; settings: read-out: Lck-1
T6 construct: Kinases are expressed as either kinase domains or full length constructs; made in house
Outline: as §2

[7] = molecular target: T7, Zap-70 (Homo sapiens, UniProt P43403); assay: Kinase inhibition assay (33P transfer), Zap-70; settings: read-out: Zap-1
T7 construct: Kinases are expressed as either kinase domains or full length constructs; made in house
T7 sequence (P43403 1-619): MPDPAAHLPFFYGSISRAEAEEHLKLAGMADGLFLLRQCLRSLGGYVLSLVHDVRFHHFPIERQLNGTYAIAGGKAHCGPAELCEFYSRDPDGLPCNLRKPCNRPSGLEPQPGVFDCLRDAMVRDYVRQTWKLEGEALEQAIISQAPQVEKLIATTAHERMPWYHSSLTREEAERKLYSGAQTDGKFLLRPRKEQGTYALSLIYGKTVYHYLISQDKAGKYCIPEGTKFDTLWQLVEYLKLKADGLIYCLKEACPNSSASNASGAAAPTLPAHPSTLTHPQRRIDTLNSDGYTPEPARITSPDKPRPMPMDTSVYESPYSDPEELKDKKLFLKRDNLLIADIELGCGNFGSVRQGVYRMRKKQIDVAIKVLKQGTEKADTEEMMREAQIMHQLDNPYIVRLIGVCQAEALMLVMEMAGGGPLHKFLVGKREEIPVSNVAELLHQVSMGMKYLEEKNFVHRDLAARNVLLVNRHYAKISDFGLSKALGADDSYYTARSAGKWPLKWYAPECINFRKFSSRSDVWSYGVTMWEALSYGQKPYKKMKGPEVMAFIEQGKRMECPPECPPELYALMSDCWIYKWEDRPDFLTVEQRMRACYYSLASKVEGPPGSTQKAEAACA
Outline: as §2

[8] = molecular target: T8, c-Met (Homo sapiens, UniProt P08581); assay: Kinase inhibition assay (33P transfer), c-Met; settings: read-out: Met-1
T8 construct: Kinases are expressed as either kinase domains or full length constructs; made in house
Outline: as §1

[9] = molecular target: T9, ErbB4 (Homo sapiens, UniProt Q15303); assay: Kinase inhibition assay (33P transfer), ErbB4; settings: read-out: ErbB4-1
T9 construct: Kinases are expressed as either kinase domains or full length constructs; made in house

[10] = molecular target: T10, Tek (Homo sapiens, UniProt Q02763); assay: Kinase inhibition assay (33P transfer), Tek; settings: read-out: Tek-1
T10 construct: Kinases are expressed as either kinase domains or full length constructs; made in house
Outline: as §1

[11] = molecular target: T4, IGFR-1; assay: Kinase inhibition assay (33P transfer), IGFR-1; settings: Table 2, kinase inhibition class
[12] = molecular target: T11, EPHB4 (Homo sapiens, UniProt P54760); assay: Kinase inhibition assay (33P transfer), EPHB4; settings: read-out: EPHB4-1
T11 construct: Kinases are expressed as either kinase domains or full length constructs; made in house
T11 sequence (P54760 16-987): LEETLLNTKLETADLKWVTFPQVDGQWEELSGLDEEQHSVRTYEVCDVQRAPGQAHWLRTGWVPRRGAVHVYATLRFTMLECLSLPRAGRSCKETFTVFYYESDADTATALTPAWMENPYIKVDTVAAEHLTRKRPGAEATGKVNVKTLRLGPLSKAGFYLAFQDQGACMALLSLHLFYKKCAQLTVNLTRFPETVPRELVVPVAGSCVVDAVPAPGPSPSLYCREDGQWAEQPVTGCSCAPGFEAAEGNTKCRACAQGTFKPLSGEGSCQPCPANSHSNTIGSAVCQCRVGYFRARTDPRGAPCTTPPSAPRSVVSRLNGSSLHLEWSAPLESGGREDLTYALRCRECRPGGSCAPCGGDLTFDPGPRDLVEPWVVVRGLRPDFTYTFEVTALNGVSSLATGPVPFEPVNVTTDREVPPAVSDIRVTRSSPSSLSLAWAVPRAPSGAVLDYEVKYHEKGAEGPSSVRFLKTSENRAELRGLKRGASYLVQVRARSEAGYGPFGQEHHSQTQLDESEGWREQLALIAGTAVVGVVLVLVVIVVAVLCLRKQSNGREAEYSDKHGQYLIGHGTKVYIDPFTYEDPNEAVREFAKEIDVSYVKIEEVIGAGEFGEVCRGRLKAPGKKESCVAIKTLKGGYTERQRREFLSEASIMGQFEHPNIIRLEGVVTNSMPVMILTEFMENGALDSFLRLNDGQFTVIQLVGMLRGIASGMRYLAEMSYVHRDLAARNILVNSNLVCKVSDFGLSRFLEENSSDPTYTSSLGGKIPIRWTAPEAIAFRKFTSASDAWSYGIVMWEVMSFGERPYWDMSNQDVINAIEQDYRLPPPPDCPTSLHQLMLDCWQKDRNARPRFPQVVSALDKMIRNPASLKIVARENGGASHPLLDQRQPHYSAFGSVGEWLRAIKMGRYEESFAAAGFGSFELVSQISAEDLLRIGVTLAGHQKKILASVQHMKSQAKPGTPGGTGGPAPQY

[13] = Table 2, kinase inhibition class

T5 sequence (P35968 20-1356, species assumed): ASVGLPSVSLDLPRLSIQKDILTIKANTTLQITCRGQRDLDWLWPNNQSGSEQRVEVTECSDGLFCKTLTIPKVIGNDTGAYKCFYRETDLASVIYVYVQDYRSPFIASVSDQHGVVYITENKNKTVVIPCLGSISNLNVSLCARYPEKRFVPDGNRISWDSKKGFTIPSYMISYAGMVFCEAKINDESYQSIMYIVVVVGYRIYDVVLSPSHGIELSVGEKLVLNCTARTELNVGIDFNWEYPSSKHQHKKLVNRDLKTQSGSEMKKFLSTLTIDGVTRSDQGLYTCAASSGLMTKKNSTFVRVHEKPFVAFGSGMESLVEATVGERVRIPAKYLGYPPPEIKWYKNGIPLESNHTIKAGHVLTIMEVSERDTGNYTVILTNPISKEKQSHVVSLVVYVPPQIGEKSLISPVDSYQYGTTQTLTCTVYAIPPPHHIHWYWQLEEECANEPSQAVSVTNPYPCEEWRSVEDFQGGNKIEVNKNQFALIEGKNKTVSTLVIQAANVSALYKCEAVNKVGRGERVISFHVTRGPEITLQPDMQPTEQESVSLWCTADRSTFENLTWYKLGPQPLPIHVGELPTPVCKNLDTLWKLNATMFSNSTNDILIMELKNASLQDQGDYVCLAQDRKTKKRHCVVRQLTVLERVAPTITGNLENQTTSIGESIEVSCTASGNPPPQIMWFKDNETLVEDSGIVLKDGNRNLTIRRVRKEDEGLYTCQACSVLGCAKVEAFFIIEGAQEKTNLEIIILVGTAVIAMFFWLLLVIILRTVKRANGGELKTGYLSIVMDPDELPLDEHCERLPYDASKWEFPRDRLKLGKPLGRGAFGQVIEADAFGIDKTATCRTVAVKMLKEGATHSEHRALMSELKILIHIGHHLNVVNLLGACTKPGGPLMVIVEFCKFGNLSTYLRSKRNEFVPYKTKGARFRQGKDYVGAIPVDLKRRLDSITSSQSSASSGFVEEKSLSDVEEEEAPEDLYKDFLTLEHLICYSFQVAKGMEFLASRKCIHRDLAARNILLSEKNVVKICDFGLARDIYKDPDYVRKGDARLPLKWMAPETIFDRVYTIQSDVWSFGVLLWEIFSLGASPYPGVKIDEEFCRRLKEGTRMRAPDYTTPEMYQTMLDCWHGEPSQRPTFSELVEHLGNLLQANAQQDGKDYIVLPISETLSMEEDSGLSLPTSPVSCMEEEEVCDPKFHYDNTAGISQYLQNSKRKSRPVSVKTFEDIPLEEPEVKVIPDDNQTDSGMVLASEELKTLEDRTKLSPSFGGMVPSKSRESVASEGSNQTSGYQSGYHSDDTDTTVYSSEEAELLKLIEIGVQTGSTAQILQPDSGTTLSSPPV
T3 sequence (Q9Y243 whole entry, the tested form may be a part): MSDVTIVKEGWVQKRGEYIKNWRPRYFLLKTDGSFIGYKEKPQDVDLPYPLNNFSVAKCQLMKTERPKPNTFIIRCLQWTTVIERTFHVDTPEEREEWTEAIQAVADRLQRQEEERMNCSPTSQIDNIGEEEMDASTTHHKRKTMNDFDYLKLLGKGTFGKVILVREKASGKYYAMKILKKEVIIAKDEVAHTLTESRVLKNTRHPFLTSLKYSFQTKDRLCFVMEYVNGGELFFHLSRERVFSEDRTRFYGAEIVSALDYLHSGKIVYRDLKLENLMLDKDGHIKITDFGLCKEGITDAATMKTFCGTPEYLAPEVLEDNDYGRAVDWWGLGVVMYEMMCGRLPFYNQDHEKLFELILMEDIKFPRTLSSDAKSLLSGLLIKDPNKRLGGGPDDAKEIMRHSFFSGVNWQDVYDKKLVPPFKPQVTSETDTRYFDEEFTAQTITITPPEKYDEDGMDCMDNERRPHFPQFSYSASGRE
T6 sequence (P06239 whole entry, species assumed, the tested form may be a part): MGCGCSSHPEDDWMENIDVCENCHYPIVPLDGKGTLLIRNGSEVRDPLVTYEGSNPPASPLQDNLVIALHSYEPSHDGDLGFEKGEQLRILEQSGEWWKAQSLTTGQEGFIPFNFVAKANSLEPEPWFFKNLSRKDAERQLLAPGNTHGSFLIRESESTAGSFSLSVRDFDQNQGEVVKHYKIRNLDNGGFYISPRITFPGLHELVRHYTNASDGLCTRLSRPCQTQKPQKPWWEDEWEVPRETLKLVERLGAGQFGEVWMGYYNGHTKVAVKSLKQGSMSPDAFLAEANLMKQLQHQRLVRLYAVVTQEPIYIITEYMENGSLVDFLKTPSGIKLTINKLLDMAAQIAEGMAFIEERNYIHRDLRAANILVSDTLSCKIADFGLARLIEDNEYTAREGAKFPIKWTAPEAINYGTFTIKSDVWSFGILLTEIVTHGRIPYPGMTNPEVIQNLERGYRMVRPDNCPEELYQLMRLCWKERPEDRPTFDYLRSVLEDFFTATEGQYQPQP
T8 sequence (P08581 25-1390): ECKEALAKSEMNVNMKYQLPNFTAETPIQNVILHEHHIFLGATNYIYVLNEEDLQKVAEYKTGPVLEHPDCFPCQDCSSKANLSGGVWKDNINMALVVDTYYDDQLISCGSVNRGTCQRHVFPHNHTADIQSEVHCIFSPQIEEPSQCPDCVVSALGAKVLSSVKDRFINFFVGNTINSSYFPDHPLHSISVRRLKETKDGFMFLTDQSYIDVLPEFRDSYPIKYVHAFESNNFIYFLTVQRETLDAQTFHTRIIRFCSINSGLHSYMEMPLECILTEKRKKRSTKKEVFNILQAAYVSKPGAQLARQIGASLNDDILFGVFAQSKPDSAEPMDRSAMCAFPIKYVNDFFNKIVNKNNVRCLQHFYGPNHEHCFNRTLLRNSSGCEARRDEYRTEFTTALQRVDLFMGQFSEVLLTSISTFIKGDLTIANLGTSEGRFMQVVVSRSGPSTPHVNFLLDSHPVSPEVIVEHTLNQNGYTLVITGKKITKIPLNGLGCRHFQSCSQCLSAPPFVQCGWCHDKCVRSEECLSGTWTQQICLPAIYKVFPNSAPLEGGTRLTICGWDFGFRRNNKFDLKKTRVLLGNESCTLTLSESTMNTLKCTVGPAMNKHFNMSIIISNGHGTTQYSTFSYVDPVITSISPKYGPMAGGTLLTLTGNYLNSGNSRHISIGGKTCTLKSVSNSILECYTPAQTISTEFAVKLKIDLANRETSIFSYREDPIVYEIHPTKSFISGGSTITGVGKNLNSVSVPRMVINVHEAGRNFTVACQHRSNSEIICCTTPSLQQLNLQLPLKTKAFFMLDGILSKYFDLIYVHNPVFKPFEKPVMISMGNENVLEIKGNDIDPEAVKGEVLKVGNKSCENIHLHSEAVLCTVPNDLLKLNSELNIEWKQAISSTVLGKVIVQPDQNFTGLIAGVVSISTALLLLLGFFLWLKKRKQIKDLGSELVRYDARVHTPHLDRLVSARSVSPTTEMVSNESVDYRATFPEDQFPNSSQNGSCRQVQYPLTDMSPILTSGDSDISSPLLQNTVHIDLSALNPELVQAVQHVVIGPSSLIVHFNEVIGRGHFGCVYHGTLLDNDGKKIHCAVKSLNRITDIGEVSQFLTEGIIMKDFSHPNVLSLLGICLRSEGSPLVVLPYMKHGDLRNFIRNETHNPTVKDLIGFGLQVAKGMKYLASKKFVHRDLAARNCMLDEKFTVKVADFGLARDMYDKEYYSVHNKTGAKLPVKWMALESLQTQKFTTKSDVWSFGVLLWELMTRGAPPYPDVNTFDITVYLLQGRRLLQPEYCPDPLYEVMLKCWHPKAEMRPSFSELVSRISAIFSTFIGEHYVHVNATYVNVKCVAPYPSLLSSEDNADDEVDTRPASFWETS
T2 sequence (P00533 25-1210, species assumed): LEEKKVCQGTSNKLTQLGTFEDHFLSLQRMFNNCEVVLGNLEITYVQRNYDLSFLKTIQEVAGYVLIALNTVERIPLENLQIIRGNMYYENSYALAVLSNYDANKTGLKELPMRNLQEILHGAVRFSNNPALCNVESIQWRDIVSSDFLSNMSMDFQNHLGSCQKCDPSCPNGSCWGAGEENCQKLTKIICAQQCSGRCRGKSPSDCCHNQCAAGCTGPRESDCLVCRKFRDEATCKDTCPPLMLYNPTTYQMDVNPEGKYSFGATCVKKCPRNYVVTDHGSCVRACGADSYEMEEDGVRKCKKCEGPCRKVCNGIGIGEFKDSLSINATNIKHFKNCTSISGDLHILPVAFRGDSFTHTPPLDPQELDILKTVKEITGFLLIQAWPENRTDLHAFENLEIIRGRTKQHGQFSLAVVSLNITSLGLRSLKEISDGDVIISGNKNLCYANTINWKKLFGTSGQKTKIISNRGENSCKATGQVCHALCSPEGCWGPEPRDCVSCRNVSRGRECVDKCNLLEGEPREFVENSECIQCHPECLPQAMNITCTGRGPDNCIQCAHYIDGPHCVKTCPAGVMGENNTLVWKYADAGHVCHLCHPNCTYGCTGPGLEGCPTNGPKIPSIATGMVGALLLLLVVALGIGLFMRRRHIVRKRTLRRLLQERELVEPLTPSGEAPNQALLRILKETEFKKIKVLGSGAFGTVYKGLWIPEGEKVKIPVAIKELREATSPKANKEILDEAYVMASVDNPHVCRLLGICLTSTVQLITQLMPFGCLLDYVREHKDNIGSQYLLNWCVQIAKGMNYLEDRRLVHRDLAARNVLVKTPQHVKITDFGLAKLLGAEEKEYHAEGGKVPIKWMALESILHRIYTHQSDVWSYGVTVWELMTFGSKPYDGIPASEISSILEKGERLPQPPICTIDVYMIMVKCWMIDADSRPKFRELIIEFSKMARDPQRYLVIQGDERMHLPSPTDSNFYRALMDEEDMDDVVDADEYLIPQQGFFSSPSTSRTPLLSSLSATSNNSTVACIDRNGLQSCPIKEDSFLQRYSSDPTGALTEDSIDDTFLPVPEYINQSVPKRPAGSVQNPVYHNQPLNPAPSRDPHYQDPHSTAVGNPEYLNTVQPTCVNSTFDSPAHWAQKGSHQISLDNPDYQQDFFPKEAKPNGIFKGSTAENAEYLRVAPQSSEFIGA

SMILES	pIC50 ([1]; Table 3, class symbols)	pIC50 ([2]; Table 2, class symbols A-E)	pIC50 ([3]; Table 2, class symbols A-E)	pIC50 [4]	pIC50 ([5]; Table 3, class symbols)	pIC50 ([6]; Table 3, class symbols)	pIC50 ([7]; Table 3, class symbols)	pIC50 ([8]; Table 2, class symbols A-E)	pIC50 ([1]; Table 3)	pIC50 [2, 13]	pIC50 [3, 13]	pIC50 [9]	pIC50 [10]	pIC50 [11]	pIC50 ([5]; Table 3)	pIC50 ([6]; Table 3)	pIC50 ([7]; Table 3)	pIC50 [12]	pIC50 [8, 13]
c1ccc(Nc2ncccc2-c2ncnc(Nc3ccc4[nH]ncc4c3)n2)cc1 [Compound 1117]	< 4.93	4.93 to 5.04	< 4.93	< 4.93	> 5.98	< 4.93	< 4.93	5.20 to 5.98	–	–	–	–	–	–	–	–	–	–	–
COc1ccc2[nH]cc(CCNc3ncnc(Nc4ccc(OC)c(OC)c4)n3)c2c1 [Compound 855]	< 4.97	< 4.97	< 4.97	< 4.97	< 4.97	< 4.97	< 4.97	< 4.97	–	–	–	–	–	–	–	–	–	–	–
COC(=O)c1cccc(Nc2ncnc(-n3c(Cl)nc4ccccc43)n2)c1 [Compound 1066]	< 4.93	5.04 to 5.20	5.04 to 5.20	< 4.93	5.04 to 5.20	< 4.93	< 4.93	5.04 to 5.20	–	–	–	–	–	–	–	–	–	–	–
COc1ccc(Nc2ncnc(N(C)c3ccccc3OC(F)(F)F)n2)cc1OC [Compound 867]	< 4.97	5.24 to 6.02	5.24 to 6.02	< 4.97	4.97 to 5.08	5.24 to 6.02	< 4.97	> 6.02	–	–	–	–	–	–	–	–	–	–	–
COc1ccc(Nc2ncnc(N(C)c3ccc(OC(F)(F)F)cc3)n2)cc1OC [Compound 866]	< 4.97	5.24 to 6.02	< 4.97	< 4.97	5.24 to 6.02	5.08 to 5.24	< 4.97	5.24 to 6.02	–	–	–	–	–	–	–	–	–	–	–
COc1ccc(Nc2ncnc(Nc3ccc(OCc4ccccc4)cc3)n2)cc1OC [Compound 157]	–	–	–	–	–	–	–	–	< 4.98	5.25 to 6.03	4.98 to 5.09	< 4.98	5.09 to 5.25	< 4.98	5.25 to 6.03	< 4.98	5.09 to 5.25	5.25 to 6.03	4.98 to 5.09
CC(C)Nc1ncccc1-c1ncnc(Nc2ccc3[nH]ncc3c2)n1 [Compound 1116]	< 4.89	5.16 to 5.94	4.89 to 5.00	5.16 to 5.94	5.00 to 5.16	5.16 to 5.94	< 4.89	5.16 to 5.94	–	–	–	–	–	–	–	–	–	–	–
COc1ccc(Nc2ncnc(Nc3ccc(OCc4ccccc4)cc3)n2)cc1O [Compound 171]	–	–	–	–	–	–	–	–	< 4.97	> 6.02	5.24 to 6.02	< 4.97	< 4.97	< 4.97	< 4.97	< 4.97	< 4.97	5.07 to 5.24	< 4.97
COc1cc(Nc2ncnc(N(CCC(C)C)c3ccc(Cl)cc3)n2)cc(OC)c1OC [Compound 51]	–	–	–	–	–	–	–	–	< 5.01	> 6.06	< 5.01	5.12 to 5.28	5.28 to 6.06	< 5.01	5.28 to 6.06	5.28 to 6.06	< 5.01	5.28 to 6.06	5.28 to 6.06
COc1ccc(Nc2ncnc(Nc3cccc(Br)c3)n2)cc1OC [Compound 118]	–	–	–	–	–	–	–	–	5.22 to 6.00	> 6.00	< 4.95	< 4.95	< 4.95	5.22 to 6.00	< 4.95	4.95 to 5.06	< 4.95	5.22 to 6.00	< 4.95
CCOC(=O)Cc1ccc(Nc2ncnc(Nc3cc(OC)c(OC)c(OC)c3)n2)cc1 [Compound 62]	–	–	–	–	–	–	–	–	< 4.99	> 6.04	< 4.99	< 4.99	< 4.99	5.26 to 6.04	5.26 to 6.04	5.26 to 6.04	< 4.99	< 4.99	4.99 to 5.10
